Laboratory results taken from PMC6891768 (Marine Drugs, 2019).
Entries after “also recorded” stand apart in the source; their conditions may differ. Where two headings read alike, the source gives them in different places.

Tests used:
rat brain α4β2 nAChRs [1] = target: T1, rat brain α4β2 nAChRs (Rattus norvegicus, UniProt P09483+P12390); test: [3H]-methylcarbamylcholine binding to rat brain membranes, pH dependence
T1 construct: from tissue; host or cells: whole rat brain membranes
Source text: Initially, we measured the pH-dependent binding of [^3H]-methylcarbamylcholine ([^3H]-MCC) to rat brain α4β2 nAChRs. In the absence of anabaseine we found a large (approximately 3-fold) enhancement of [^3H]-MCC binding as pH increased from 6.0 to 7.8. While interesting in its own regard, since MCC is permanently ionized, this marked pH dependence of [^3H]-MCC nAChR affinity complicated the analysis of the effect of pH on anabaseine binding, which was indirectly measured by [^3H]-MCC displacement. Anabaseine inhibition of [^3H]-MCC binding at each pH in Figure 2 is expressed with respect to the binding of [^3H]-MCC alone at the same pH, so as to compensate for [^3H]-MCC binding pH dependence. […]
Figure 2 Concentrations of the three major forms of anabaseine as a function of pH as determined by UV spectrophotometry. Left Ordinate: Concentration of each form expressed as % of the total anabaseine concentration. […]
[^3H]-[…] ([^3H]-MCC) binding assays with rat brain membranes were carried out as previously reported with a final concentration of 0.5 nM [^3H]-MCC [8, 54]; 2.8 µM atropine sulfate (Sigma-Aldrich) was added to inhibit binding to muscarinic receptors. […] Nonspecific binding was measured in the presence of 1 mM (S)-nicotine hydrogen tartrate (Sigma-Aldrich). […]

human GABAA receptor = target: T2, human GABAA receptor (UniProt P28472+P62813); test: GABAA receptor activation, membrane depolarization FlexStation assay (WSS1 cells); format: cell-based; settings: human GABAA receptor in HEK-derived WSS1 cells
T2 construct: host or cells: WSS1 cells (HEK cell line)
Protocol: Figure 5 Investigation of possible activation of the human GABAA receptor measured by membrane depolarization using a FlexStation assay. Each point is the mean of three separate measurements.
WSS1 cells from ATCC (Manassas, VA, USA) which express functional GABAA receptors were cultured as previously described by Wong et al.. The cells were grown to near confluence and then transferred to black well, clear bottom 96-well assay plates (Corning Incorporated, Corning, NY, USA) 12–18 h prior to the assay. Molecular Devices blue dye (Sunnyvale, CA, USA) was reconstituted as previously described. The WSS1 cells were allowed to come to room temperature, the culture medium was then aspirated, replaced with the blue dye and equilibrated for 30 min before being placed on a FlexStation 3 plate reader (Molecular Devices, Sunnyvale, CA, USA). […] Programmed readings and data analysis were performed as previously described.

[2] = cited from earlier work
rat α7 nAChR = target: T3, rat α7 nAChR (Rattus norvegicus, UniProt Q05941); test: biochemical; format: binding
T3 construct: from tissue; host or cells: rat brain membranes

[3] = target: T4, human α4β2 neuronal nAChR expressed in tsA201 cells (Homo sapiens, UniProt P17787+P43681); test: Activation of human α4β2 neuronal nAChR, membrane depolarization FlexStation assay; format: cell-based
T4 construct: expressed in transfected cells
Protocol: Figure 3 Activation of the human α4β2 neuronal nAChR expressed in tsA201 cells as measured by membrane depolarization using the FlexStation assay. Each point generally is the mean of four separate measurements. All responses were normalized with respect to the response of the cells to 0.5 μM epibatidine. Potency and efficacy estimates from these curves are found in Table 1.
TsA201 cells expressing human α4β2 were maintained in media consisting of Dulbecco’s Modified Eagle medium supplemented with 10% FBS, 100 units/mL penicillin and 100 μg/mL streptomycin, 2 mM L-glutamine, 0.5 mg/mL zeocin and 0.6 mg/mL geneticin [55]. Cells were grown in 75 cm^2 culture flasks, which were housed in a humidified incubator (Fisher Scientific, Atlanta, GA, USA at 37 °C in an atmosphere of 5% CO2. They were grown to around 80–90% confluence after harvesting with 0.25% trypsin and being split weekly at a subcultivation ratio of between 1:6 and 1:10.
(§1) Our experimental protocol was based on the initial study of Fitch et al.. Cells were seeded at a density of roughly 5 × 10^4 to 10^5 cells/well in 96-well flat-bottom black wall culture plates coated with 50 μg /ml poly-D-lysine hydrobromide (Sigma-Aldrich, 70–150 kDa) and grown overnight in 100 μL culture medium. A proprietary membrane potential dye obtained from Molecular Devices (San Diego, CA, USA) was prepared by dissolving one bottle of dye into 30 mL of Hanks Saline (pH = 7.4) containing 20 mM HEPES buffer. The cells were incubated with 100 μL of dye for 30 min at 37 °C prior to the robotically controlled concentration-response experiment. Serial dilutions of a compound for dose-response analysis were prepared in 96-well plates by evaporation of a methanolic stock solution and then reconstituted in the appropriate volume of Hanks saline. Fluid transfer and readings were performed by a FlexStation fluorimeter (Molecular Devices). Excitation and emission wavelengths were set to 530 nm and 565 nm with a cutoff of 550 nm. The first 17 s were used as a basal reading. At 18 s, a test compound was added to determine the EC50, followed by addition of 25 μL KCl (40 mM final concentration) at 160 s to serve as a fluorescence calibrant. Compounds that had no measurable depolarizing activity on the TsA201 cells were then tested for their ability to inhibit a 5 µM control ACh response. Data were fitted and graphed with Prism (GraphPad) to determine the EC50.

[4] = target: T5, human fetal (TE671 cells) skeletal muscle nAChR (Homo sapiens, UniProt P02708+P07510+Q07001); test: Activation of human fetal skeletal muscle nAChR (TE671 cells), membrane depolarization FlexStation assay; format: cell-based
T5 construct: endogenous in cells; host or cells: TE671 cells (human)
Protocol: Figure 4 Activation of the human fetal (TE671 cells) skeletal muscle nAChR by the various stable anabaseine analogs measured by membrane depolarization using the FlexStation assay. Each point is generally the mean of four separate measurements. Responses were normalized to the 5 μM epibatidine response. Potency and efficacy estimates from these curves are found in Table 1.
as §1

[5] = target: T6, Torpedo electric organ membrane nAChRs (Tetronarce californica, UniProt P02710+P02714+P02718); test: biochemical; format: binding
T6 construct: from tissue; host or cells: Torpedo electric organ membranes

rat brain α4β2 nAChR = target: T7, rat brain α4β2 nAChR (Rattus norvegicus, UniProt P09483+P12390); test: [3H]-cytisine displacement binding, rat brain membranes
T7 construct: from tissue; host or cells: whole rat brain membranes

rat brain α4β2 nAChRs [6] = target: T1, rat brain α4β2 nAChRs; settings: read-out: Kd of radioligand with rat brain membranes; cited from earlier work
[7] = Ionization and ring-chain form distribution in water; format: physicochemical
Source text: Figure 2 Concentrations of the three major forms of anabaseine as a function of pH as determined by UV spectrophotometry. Left Ordinate: Concentration of each form expressed as % of the total anabaseine concentration. The red curve is the estimated cyclic imine concentration and the blue curve is the concentration of the cyclic iminium or the monocationic ammonium-ketone form of anabaseine (Assuming that KH = 1.0, the concentrations of these ionized forms are equal). Right ordinate: pH dependence of anabaseine inhibition of [^3H]-MCC binding to rat brain α4β2 receptors (Standard error bars included). Anabaseine inhibition (mean ± SEM) at each pH was the average of six replicate measurements.
Since the two monocationic forms show the same pH dependence and the same concentration when expressed as % of total anabaseine, another approach was required to assess their activities separately. We resorted to synthesizing and testing stable analogs that resemble the three anabaseine forms. […] The monocationic ammonium-ketone open-chain form analog selected was 5-methylamino-1-(3-pyridyl)-1-pentanone, MAPP, shown in Figure 1; it mainly ([…]) exists in their open-chain form in water at physiological pH; its cyclic imine or iminium form, N-methylanabaseine, is present in very small concentration (≤5%). […]

[8] = tested on: vertebrate brain and neuromuscular nAChRs; test: Overall comparison of agonist potency and binding affinity at vertebrate nAChRs; settings: for activity relative to that predicted if the one form was solely active: several vertebrate brain and neuromuscular nAChRs
Source text: PTHP was the only anabaseine analog that approached anabaseine in potency and binding affinity.
The ability of a variety of 2-(aryl)-1,4,5,6-tetrahydropyrmidines to block neuromuscular nAChRs and produce teratogenic effects in chick embryos was reported long ago [45, 46]. Some of these compounds were reported to be nAChR agonists. The only study of PTHP on neurons was that of Upshall et al. on leech Retzius cells. Our results also indicate that PTHP is a potent agonist at neuronal as well as neuromuscular nAChRs. […] For PTHP to be equipotent with anabaseine, based on the I^+ form being the only active form, its EC50 would need to be ~1/3 of the EC50 of anabaseine, since the anabaseine (I^+) is ~1/3 of its total concentration.

[9] = no reference given; cited from earlier work
[10] = displacement of [3H]-cytisine, rat brain membranes, read-out: Ki Neuronal nAChR Rat α4β

T4 sequence (P43681 29-627): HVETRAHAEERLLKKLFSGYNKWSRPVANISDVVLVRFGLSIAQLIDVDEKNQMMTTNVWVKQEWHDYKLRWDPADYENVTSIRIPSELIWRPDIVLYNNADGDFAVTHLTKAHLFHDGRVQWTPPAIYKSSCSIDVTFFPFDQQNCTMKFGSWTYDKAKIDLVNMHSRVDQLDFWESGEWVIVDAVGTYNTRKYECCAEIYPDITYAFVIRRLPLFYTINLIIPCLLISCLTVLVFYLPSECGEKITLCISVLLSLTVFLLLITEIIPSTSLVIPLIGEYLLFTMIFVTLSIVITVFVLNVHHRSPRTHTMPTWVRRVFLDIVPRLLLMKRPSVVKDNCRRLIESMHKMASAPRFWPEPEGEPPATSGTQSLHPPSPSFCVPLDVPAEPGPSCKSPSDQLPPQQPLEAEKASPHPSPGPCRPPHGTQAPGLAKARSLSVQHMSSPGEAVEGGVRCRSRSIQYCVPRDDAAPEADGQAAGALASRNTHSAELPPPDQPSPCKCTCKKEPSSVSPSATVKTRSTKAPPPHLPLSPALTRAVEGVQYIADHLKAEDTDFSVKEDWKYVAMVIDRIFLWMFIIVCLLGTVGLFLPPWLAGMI
T4 sequence (P17787 26-502): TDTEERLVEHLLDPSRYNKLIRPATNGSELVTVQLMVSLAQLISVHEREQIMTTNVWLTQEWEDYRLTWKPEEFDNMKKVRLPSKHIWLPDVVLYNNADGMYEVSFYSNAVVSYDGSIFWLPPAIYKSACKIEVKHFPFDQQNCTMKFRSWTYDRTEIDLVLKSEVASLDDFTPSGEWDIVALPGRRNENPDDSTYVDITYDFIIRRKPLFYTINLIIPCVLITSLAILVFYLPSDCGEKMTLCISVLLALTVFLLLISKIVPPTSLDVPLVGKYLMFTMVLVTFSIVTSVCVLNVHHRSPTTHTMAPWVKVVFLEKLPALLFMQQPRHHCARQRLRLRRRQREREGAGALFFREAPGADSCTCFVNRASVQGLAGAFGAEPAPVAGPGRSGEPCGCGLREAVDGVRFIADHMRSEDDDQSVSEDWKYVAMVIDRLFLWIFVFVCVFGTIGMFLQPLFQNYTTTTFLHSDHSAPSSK
T6 sequence (P02710 25-461): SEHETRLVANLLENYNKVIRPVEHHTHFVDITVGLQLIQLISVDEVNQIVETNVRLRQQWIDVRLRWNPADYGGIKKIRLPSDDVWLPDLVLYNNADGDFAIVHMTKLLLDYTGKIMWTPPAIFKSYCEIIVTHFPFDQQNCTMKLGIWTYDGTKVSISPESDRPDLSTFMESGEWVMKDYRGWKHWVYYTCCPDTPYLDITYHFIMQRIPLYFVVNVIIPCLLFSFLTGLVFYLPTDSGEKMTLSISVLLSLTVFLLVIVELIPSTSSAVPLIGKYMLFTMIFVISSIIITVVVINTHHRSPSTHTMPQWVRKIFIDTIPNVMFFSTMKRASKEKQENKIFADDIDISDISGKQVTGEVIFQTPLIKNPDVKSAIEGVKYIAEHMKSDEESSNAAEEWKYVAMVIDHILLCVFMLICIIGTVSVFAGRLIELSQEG
T6 sequence (P02714 18-506): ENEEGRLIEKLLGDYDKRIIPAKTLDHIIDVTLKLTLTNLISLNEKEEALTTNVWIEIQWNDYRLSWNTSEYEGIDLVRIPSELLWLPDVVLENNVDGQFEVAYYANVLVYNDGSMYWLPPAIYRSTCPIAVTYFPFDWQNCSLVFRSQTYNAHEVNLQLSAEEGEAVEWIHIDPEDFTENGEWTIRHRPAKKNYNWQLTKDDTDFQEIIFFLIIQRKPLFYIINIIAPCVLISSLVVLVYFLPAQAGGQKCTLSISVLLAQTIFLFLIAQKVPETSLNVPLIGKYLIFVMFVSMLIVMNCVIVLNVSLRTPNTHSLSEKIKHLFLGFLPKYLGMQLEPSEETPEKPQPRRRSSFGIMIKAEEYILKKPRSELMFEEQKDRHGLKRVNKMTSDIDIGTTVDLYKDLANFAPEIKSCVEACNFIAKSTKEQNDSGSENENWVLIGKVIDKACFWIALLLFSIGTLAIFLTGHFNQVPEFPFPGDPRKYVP
T6 sequence (P02712 25-493, further chain): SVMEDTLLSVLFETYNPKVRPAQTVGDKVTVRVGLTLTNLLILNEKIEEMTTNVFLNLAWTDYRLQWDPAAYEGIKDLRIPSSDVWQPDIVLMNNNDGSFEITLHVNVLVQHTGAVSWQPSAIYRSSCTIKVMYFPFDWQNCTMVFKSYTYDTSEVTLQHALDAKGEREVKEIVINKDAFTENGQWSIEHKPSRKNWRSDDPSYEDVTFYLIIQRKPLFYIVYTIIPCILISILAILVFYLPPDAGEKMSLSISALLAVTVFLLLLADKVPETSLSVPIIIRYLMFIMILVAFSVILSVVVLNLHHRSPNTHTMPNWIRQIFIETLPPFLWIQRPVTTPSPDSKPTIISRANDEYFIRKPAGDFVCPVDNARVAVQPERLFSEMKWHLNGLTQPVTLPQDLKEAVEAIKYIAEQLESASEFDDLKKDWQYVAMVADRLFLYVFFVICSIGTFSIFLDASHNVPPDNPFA
T6 sequence (P02718 22-522): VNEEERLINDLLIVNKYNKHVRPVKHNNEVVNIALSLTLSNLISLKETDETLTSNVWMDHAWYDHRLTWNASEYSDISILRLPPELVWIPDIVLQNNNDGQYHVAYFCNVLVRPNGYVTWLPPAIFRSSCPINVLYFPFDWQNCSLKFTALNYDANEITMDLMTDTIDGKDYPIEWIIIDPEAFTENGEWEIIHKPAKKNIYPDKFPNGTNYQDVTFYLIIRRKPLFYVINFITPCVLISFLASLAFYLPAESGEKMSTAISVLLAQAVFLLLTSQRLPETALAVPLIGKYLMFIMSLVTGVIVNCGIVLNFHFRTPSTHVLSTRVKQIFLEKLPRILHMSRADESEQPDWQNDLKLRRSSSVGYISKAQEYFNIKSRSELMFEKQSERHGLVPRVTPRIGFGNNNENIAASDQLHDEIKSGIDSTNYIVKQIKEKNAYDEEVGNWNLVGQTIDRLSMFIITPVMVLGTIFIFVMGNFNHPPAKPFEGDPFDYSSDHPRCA
T7 sequence (P09483 31-630): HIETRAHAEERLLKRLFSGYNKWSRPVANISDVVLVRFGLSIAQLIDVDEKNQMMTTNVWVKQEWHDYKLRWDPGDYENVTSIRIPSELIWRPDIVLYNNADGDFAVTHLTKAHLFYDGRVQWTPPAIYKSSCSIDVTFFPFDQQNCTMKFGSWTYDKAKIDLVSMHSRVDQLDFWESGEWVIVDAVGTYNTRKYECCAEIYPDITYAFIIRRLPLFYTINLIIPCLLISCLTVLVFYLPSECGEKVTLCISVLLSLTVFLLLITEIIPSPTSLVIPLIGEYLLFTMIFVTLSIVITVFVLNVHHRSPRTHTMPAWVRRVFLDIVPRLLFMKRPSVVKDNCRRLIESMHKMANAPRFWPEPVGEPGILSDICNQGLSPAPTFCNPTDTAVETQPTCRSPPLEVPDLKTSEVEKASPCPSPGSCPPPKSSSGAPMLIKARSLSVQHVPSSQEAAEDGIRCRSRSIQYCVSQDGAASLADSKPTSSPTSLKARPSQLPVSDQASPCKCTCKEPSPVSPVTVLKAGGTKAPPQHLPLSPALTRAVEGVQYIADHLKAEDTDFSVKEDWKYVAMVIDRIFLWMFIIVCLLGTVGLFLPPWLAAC
T7 sequence (P12390 25-500): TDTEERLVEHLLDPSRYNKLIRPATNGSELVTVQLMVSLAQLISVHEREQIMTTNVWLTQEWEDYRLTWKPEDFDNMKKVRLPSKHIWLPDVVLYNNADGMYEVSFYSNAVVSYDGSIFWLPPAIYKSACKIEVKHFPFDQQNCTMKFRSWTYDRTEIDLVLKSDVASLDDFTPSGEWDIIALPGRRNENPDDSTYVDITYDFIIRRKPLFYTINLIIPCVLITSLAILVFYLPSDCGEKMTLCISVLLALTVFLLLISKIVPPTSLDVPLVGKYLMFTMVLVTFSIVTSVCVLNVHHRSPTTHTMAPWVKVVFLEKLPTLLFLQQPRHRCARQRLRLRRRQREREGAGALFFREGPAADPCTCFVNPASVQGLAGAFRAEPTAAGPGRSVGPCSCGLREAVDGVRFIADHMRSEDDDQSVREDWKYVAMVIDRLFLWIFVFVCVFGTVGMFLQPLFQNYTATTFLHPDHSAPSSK
T1 sequence (P09483 31-630): as the sequence (P09483 31-630) above
T1 sequence (P12390 25-500): as the sequence (P12390 25-500) above
T3 sequence (Q05941 23-502): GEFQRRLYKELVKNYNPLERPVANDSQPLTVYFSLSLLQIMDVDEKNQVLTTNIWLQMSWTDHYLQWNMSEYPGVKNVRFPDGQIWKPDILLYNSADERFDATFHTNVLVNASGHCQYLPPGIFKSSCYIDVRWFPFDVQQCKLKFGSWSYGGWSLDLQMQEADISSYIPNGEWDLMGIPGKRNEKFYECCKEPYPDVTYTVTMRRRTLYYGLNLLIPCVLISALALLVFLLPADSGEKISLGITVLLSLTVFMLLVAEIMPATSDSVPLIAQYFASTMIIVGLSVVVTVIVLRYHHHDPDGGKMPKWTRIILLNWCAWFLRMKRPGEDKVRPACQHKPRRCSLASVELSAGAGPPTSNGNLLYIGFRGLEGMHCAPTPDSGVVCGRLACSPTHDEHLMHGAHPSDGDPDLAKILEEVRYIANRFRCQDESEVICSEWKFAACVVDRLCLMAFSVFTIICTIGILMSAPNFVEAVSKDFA

SMILES: [3H]CNC(=O)OCC[N+](C)(C)C [[^3H]-MCC, [^3H]-methylcarbamylcholine]
- enhancement of binding with increasing pH (rat brain α4β2 nAChRs [1]; pH increased from 6.0 to 7.8, absence of anabaseine): approximately 3 fold

SMILES: c1cncc(C2=NCCC2)c1 [myosmine]
- GABAA receptor agonist activity (human GABAA receptor): not GABAA agonists; also recorded: no activity was detected

SMILES: c1cncc(C2=NCCCC2)c1 [Anabaseine, anabaseine, reference compound]
- GABAA receptor agonist activity (human GABAA receptor): not GABAA agonists; also recorded: no activity was detected
- cyclic iminium (I+) form as fraction of total concentration ([2]; pH 7.4): ~ 1/3
- Ki (rat α7 nAChR; read-out: Ki Neuronal nAChR Rat α7): 1.87 ± 0.1 µM
- EC50 ([3]; tsA201 cells, membrane depolarization, normalized to 0.5 μM epibatidine response, read-out: EC50 Neuronal nAChR Human α4β2): 2.85 ± 1 µM
- EC50 ([4]; TE671 cells, membrane depolarization, normalized to 5 μM epibatidine response, read-out: EC50 Neuromuscular nAChR Human TE671): 1.2 µM
- IC50 ([5]; read-out: IC50 Neuromuscular nAChR Torpedo Electric Organ): 0.29 ± 0.18 µM
- pH dependence of inhibition (displacement) of [3H]-MCC binding (rat brain α4β2 nAChRs [1]; fixed anabaseine concentration, pH 5.8 to 7.8, relative to [3H]-MCC alone at the same pH): did decrease with increased pH
- Ki (rat brain α4β2 nAChR): 0.096 ± 0.01 µM

SMILES: CNC(=O)OCC[N+](C)(C)C [[^3H]-MCC, [^3H]-methylcarbamylcholine]
- Kd (rat brain α4β2 nAChRs [6]): 0.011 µM

SMILES: c1ccc(-c2cccnc2)nc1 [2,3′-Bipyridyl, 2,3′-bipyridyl]
- Ki (rat α7 nAChR): > 2300 µM
- EC50 [3]: > 1000 µM
- EC50 [4]: 660 ± 60 µM
- IC50 [5]: 343 ± 48 µM
- fraction of molecules unionized ([7]; pH 7.4): > 99.9%
- activity relative to that predicted if the one form was solely active [8]: ≤ 1%
- Ki (rat brain α4β2 nAChR; [10]): > 50 µM

SMILES: CNCCCCC(=O)c1cccnc1 [MAPP, 5-methylamino-1-(3-pyridyl)-1-pentanone]
- concentration of cyclic imine or iminium form (N-methylanabaseine) ([2]; in water at physiological pH): ≤ 5%
- Ki (rat α7 nAChR): > 2000 µM
- EC50 [3]: > 2000 µM
- EC50 [4]: > 1000 µM
- IC50 [5]: > 500 µM
- activity relative to that predicted if the one form was solely active [8]: ≤ 1%
- Ki (rat brain α4β2 nAChR; [10]): 10 µM

SMILES: Cl.c1cncc(C2=NCCCN2)c1 [PTHP, 2-(3-pyridyl)-1,4,5,6-tetrahydropyrimidine hydrochloride]
- Ki (rat α7 nAChR): 1.54 ± 0.76 µM
- pKa of amidinium group [9]: > 10
- EC50 [3]: 3.64 ± 1.2 µM
- EC50 [4]: 1.7 ± 0.3 µM
- IC50 [5]: 0.47 ± 0.01 µM
- fraction ionized ([7]; pH 7.4, predicted): > 99%
- potency relative to that predicted for the anabaseine cyclic iminium form ([8]; from Figure 3, Figure 4 and Table 1): approximately 30%
- Ki (rat brain α4β2 nAChR; [10]): 0.38 ± 0.07 µM
